ChEMBL document CHEMBL1201862, “PubChem BioAssay data set” (2004)
The source made the active and inactive calls.

Tests used:
[1] = biological target: T1, DNA dC->dU-editing enzyme APOBEC-3G (Homo sapiens, UniProt Q9HC16); assay: inhibition of APOBEC3G ssDNA deamination – biochemical, fluorescence, single-stranded DNA substrate, SAR follow-up (AID 602136); assay type: functional; conditions: read-out: IC50_Mean
[2] = biological target: T2, DNA dC->dU-editing enzyme APOBEC-3A (Homo sapiens, UniProt P31941); assay: SAR analysis of small molecule inhibitors of APOBEC3A DNA Deaminase via a fluorescence-based single-stranded DNA deaminase assay.; assay type: functional; conditions: read-out: IC50_Mean
[3] = biological target: T2, DNA dC->dU-editing enzyme APOBEC-3A; assay: SAR analysis of small molecule inhibitors of APOBEC3A DNA Deaminase via a fluorescence-based single-stranded DNA deaminase assay - Set 2.; assay type: functional; conditions: read-out: IC50_Mean
[4] = biological target: T1, DNA dC->dU-editing enzyme APOBEC-3G; assay: SAR analysis of small molecule inhibitors of APOBEC3G DNA Deaminase via a fluorescence-based single-stranded DNA deaminase assay - Set 2.; assay type: functional; conditions: read-out: IC50_Mean
[5] = biological target: T3, Orexin/Hypocretin receptor type 1 (Homo sapiens, UniProt O43613); assay: (§1) Fluorescence-based cell-based high throughput dose response assay for antagonists of the orexin 1 receptor (OX1R; HCRTR1). [Related pubchem assays (depositor defined):AID434989, AID435008, AID463079, AID485270, AID492963, AID492964, AID492965, AID493232, AID504717, AID504718]; assay type: functional
[6] = biological target: T3, Orexin/Hypocretin receptor type 1; assay: as §1, with “Homogeneous Time Resolved Fluorescence (HTRF)-based” for “Fluorescence-based”; assay type: functional
CHO-K1 = assay: (§2) Counterscreen for antagonists of the orexin 1 receptor (OX1R; HCRTR1): Homogeneous time resolved fluorescence (HTRF)-based cell-based dose response assay to identify antagonists of the parental CHO-K1 cell line. [Related pubchem assays (depositor defined):AID434989, AID435008, AID463079, AID485270, AID492963, AID492964, AID492965, AID493232, AID504699, AID504701]; assay type: functional; conditions: Cricetulus griseus
[7] = as §2, with “Fluorescence-based” for “Homogeneous time resolved fluorescence (HTRF)-based”, “cell-based high throughput” for “cell-based”, “CHO” for “CHO-K1”; assay type: functional
Orexin receptor type 2 [8] = biological target: T4, Orexin receptor type 2 (Homo sapiens, UniProt O43614); assay: Counterscreen assay for antagonists of the orexin 1 receptor (OX1R; HCRTR1): Homogeneous Time Resolved Fluorescence (HTRF)-based cell-based dose response assay for antagonists of the orexin 2 receptor (OX2R; HCRTR2), run by assay provider.; assay type: functional
Orexin receptor type 2 [9] = biological target: T4, Orexin receptor type 2; assay: Counterscreen assay for antagonists of the orexin 1 receptor (OX1R; HCRTR1): Fluorescence-based cell-based dose response assay for antagonists of the orexin 2 receptor (OX2R; HCRTR2), run by assay provider.; assay type: functional
Aurora kinase B = Aurora kinase B (Homo sapiens, UniProt Q96GD4); assay type: functional
[10] = biological target: Vascular endothelial growth factor receptor 2 (Homo sapiens, UniProt P35968); assay type: functional
[11] = biological target: Sphingosine 1-phosphate receptor 5 (Homo sapiens, UniProt Q9H228); assay: activation of human S1P5 receptor – cell-based, fluorescence, set 2, counter-screen for S1P4 agonist project, late-stage follow-up (AID 504867); assay type: functional
[12] = biological target: Sphingosine 1-phosphate receptor 1 (Homo sapiens, UniProt P21453); assay: Late-stage fluorescence-based dose-response cell-based counterscreen assay to identify agonists of the Sphingosine 1-Phosphate Receptor 4 (S1P4): Sphingosine 1-Phosphate Receptor 1 (S1P1) agonist assay Set 2.; assay type: functional
[13] = biological target: Sphingosine 1-phosphate receptor 3 (Homo sapiens, UniProt Q99500); assay: Late-stage fluorescence-based dose-response cell-based counterscreen assay to identify agonists of the Sphingosine 1-Phosphate Receptor 4 (S1P4): Sphingosine 1-Phosphate Receptor 3 (S1P3) agonist assay Set 2.; assay type: functional
[14] = biological target: Sphingosine 1-phosphate receptor 2 (Homo sapiens, UniProt O95136); assay: activation of human S1P2 receptor – cell-based, fluorescence, set 2, counter-screen for S1P4 agonist project, late-stage follow-up (AID 504873); assay type: functional
[15] = A cell-based HTS for delayed death inhibitors of the malarial parasite plastid Measured in Microorganism System Using Plate Reader - 2126-01_Inhibitor_Dose_DryPowder_Activity.; assay type: functional, organism-based
[16] = A cell-based HTS for delayed death inhibitors of the malarial parasite plastid Measured in Microorganism System Using Plate Reader - 2126-02_Inhibitor_Dose_DryPowder_Activity.; assay type: functional, organism-based
[17] = biological target: Protein disulfide-isomerase (Homo sapiens, UniProt P07237); assay: inhibition of PDI-driven insulin aggregation – biochemical, turbidity, absorbance, cherry-picked samples, dose response (AID 602350); assay type: functional
[18] = biological target: Multidrug resistance protein CDR2 (Candida albicans (strain SC5314 / ATCC MYA-2876) (Yeast), UniProt P78595); assay: inhibition of Nile Red efflux via Candida CDR2 – S. cerevisiae AD1-8u, singleplex, Cherry Pick1 hits, dose response (AID 588604); assay type: functional
[19] = biological target: Serine/threonine-protein kinase PLK1 (Homo sapiens, UniProt P53350); assay type: functional;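 note: PLK1 measured as one member of a kinome-wide profiling panel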
[20] = biological target: Serine/threonine-protein kinase PLK3 (Homo sapiens, UniProt Q9H4B4); assay type: functional
[21] = biological target: Protein kinase C gamma type (Homo sapiens, UniProt P05129); assay type: functional
[22] = biological target: Casein kinase II subunit alpha (Homo sapiens, UniProt P68400); assay type: functional
[23] = biological target: 5'-AMP-activated protein kinase catalytic subunit alpha-1 (Homo sapiens, UniProt Q13131); assay type: functional
[24] = biological target: MAP kinase-activated protein kinase 2 (Homo sapiens, UniProt P49137); assay type: functional;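 note: measured as one member of a kinome-wide kinase panel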
[25] = biological target: RAC-gamma serine/threonine-protein kinase (Homo sapiens, UniProt Q9Y243); assay type: functional
[26] = biological target: Serine/threonine-protein kinase MRCK alpha (Homo sapiens, UniProt Q5VT25); assay type: functional
[27] = biological target: Mast/stem cell growth factor receptor Kit (Homo sapiens, UniProt P10721); assay type: functional;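 note: KIT entry within a kinase panel assay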
[28] = biological target: Protein kinase C zeta type (Homo sapiens, UniProt Q05513); assay type: functional;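 note: measured as one member of a broad kinase profiling panel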
[29] = biological target: Ribosomal protein S6 kinase alpha-3 (Homo sapiens, UniProt P51812); assay type: functional;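 note: measured within a kinome-wide profiling panel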
[30] = biological target: RAC-alpha serine/threonine-protein kinase (Homo sapiens, UniProt P31749); assay type: functional;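 note: AKT1 affinity measured as one member of a kinome-wide kinase profiling panel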
[31] = biological target: Glycogen synthase kinase-3 beta (Homo sapiens, UniProt P49841); assay type: functional;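 note: value comes from a broad kinome profiling panel, with GSK3B as the panel member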
[32] = biological target: Protein kinase C delta type (Homo sapiens, UniProt Q05655); assay type: functional
Aurora kinase A = Aurora kinase A (Homo sapiens, UniProt O14965); assay type: functional;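 note: value from the Navigating the Kinome kinase panel profiling, panel entry STK6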
Ephrin type-A receptor 2 = Ephrin type-A receptor 2 (Homo sapiens, UniProt P29317); assay type: functional;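 note: EPHA2 tested as one member of a kinome-wide kinase panel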
[33] = biological target: Serine/threonine-protein kinase pim-1 (Homo sapiens, UniProt P11309); assay type: functional
[34] = biological target: Serine/threonine-protein kinase PAK 4 (Homo sapiens, UniProt O96013); assay type: functional;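 note: value obtained within a kinome profiling panel in which PAK4 was one of the panel members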
[35] = biological target: Serine/threonine-protein kinase Chk1 (Homo sapiens, UniProt O14757); assay type: functional;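 note: measured as one member of a kinome-wide kinase profiling panel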
[36] = biological target: MAP/microtubule affinity-regulating kinase 3 (Homo sapiens, UniProt P27448); assay type: functional;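 note: MARK3 affinity measured as one member of a kinome panel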
[37] = biological target: Ribosomal protein S6 kinase beta-1 (Homo sapiens, UniProt P23443); assay type: functional;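 note: measured as one member of a kinome-wide profiling panel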
[38] = biological target: Serine/threonine-protein kinase Chk2 (Homo sapiens, UniProt O96017); assay type: functional;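 note: CHEK2 entry within a kinome-wide screening panel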
[39] = biological target: Cyclin-dependent kinase 2 (Homo sapiens, UniProt P24941); assay type: functional;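 note: CDK2 measured as one member of a broad kinome profiling panel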
[40] = biological target: Cyclin-dependent kinase 1 (Homo sapiens, UniProt P06493); assay type: functional;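 note: Kinome-wide panel profiling, with the target listed as panel member CDC2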
[41] = biological target: cAMP-dependent protein kinase catalytic subunit alpha (Homo sapiens, UniProt P17612); assay type: functional
[42] = biological target: Fibroblast growth factor receptor 1 (Homo sapiens, UniProt P11362); assay type: functional
[43] = biological target: Inhibitor of nuclear factor kappa-B kinase subunit beta (Homo sapiens, UniProt O14920); assay type: functional
[44] = biological target: Tyrosine-protein kinase Lyn (Homo sapiens, UniProt P07948); assay type: functional;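 note: lyn as one member of a kinase panel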
[45] = biological target: Receptor tyrosine-protein kinase erbB-4 (Homo sapiens, UniProt Q15303); assay type: functional;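 note: ERBB4 member of a kinome-wide kinase profiling panel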
[46] = biological target: 3-phosphoinositide-dependent protein kinase 1 (Homo sapiens, UniProt O15530); assay type: functional;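 note: value comes from the Navigating the Kinome panel, PDPK1 member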
[47] = biological target: Tyrosine-protein kinase Blk (Homo sapiens, UniProt P51451); assay type: functional;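 note: obtained as one member of a kinome-wide kinase assay panel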
[48] = biological target: Fibroblast growth factor receptor 3 (Homo sapiens, UniProt P22607); assay type: functional
[49] = biological target: Serine/threonine-protein kinase D3 (Homo sapiens, UniProt O94806); assay type: functional;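 note: determined within a kinase panel screen, with PRKCN as the panel member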
[50] = biological target: Mitogen-activated protein kinase 8 (Homo sapiens, UniProt P45983); assay type: functional;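 note: value comes from one member of a kinome-wide kinase profiling panel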
LIM domain kinase 1 = LIM domain kinase 1 (Homo sapiens, UniProt P53667); assay: Navigating the Kinome. Panel member name: LIMK1; assay type: functional

Serine/threonine-protein kinase pim-1, sequence (P11309 whole entry): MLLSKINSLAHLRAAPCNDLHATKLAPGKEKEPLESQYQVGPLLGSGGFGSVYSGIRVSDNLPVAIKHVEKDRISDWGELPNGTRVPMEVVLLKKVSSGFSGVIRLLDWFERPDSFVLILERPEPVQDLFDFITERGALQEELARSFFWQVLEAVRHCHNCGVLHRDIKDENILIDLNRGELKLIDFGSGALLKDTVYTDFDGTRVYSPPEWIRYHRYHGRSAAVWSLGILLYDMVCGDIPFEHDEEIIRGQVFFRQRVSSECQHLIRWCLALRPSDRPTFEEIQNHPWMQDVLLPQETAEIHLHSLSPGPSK
Ribosomal protein S6 kinase beta-1, sequence (P23443 whole entry): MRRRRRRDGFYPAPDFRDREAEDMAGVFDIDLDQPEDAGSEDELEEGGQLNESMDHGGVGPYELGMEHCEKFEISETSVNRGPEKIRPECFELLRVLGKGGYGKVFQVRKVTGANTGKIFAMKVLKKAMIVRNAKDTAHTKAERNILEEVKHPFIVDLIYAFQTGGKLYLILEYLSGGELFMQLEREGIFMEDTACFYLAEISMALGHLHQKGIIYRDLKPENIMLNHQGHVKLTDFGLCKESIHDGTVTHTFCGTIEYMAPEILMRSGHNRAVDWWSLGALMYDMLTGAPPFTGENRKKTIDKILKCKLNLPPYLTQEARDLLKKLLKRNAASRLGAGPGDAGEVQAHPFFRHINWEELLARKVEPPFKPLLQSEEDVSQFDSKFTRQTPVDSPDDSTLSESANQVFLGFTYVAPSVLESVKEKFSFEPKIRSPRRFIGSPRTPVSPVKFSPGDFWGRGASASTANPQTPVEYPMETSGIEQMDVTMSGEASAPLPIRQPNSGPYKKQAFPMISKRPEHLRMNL
MAP kinase-activated protein kinase 2, sequence (P49137 whole entry): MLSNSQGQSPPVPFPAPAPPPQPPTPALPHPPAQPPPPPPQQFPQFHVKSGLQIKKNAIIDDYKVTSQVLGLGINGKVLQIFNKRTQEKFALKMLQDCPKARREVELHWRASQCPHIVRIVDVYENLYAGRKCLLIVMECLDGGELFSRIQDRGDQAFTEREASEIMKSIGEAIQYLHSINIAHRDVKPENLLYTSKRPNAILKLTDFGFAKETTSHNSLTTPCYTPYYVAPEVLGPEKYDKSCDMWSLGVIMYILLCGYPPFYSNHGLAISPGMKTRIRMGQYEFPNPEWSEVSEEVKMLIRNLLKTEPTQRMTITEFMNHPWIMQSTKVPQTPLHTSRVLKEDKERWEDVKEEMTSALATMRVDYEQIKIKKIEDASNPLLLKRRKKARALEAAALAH
Mast/stem cell growth factor receptor Kit, sequence (P10721 whole entry): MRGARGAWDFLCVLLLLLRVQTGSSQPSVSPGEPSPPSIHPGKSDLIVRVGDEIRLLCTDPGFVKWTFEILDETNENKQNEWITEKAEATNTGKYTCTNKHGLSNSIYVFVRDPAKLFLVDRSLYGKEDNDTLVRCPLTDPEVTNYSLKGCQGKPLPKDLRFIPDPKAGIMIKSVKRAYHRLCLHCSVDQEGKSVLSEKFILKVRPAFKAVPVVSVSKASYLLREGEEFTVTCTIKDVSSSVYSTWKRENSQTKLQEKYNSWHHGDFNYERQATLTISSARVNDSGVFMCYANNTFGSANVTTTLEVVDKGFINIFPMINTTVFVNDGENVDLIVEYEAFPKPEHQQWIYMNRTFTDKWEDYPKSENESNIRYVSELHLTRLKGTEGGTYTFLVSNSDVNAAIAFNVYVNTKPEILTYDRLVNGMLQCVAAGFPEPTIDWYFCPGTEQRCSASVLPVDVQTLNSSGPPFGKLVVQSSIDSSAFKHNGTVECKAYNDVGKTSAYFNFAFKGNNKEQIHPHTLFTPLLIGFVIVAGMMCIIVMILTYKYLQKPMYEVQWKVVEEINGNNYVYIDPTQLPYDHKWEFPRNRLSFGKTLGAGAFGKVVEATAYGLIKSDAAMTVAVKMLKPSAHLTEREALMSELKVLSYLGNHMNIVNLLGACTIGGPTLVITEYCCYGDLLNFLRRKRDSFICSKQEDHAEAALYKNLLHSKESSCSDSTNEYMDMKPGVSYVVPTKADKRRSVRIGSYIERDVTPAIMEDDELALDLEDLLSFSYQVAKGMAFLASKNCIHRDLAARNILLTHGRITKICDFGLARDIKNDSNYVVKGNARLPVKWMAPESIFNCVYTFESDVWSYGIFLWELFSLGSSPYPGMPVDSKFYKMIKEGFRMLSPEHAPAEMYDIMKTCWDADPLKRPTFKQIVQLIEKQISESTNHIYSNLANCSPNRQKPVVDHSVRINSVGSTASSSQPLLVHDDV
Aurora kinase A, sequence (O14965 whole entry): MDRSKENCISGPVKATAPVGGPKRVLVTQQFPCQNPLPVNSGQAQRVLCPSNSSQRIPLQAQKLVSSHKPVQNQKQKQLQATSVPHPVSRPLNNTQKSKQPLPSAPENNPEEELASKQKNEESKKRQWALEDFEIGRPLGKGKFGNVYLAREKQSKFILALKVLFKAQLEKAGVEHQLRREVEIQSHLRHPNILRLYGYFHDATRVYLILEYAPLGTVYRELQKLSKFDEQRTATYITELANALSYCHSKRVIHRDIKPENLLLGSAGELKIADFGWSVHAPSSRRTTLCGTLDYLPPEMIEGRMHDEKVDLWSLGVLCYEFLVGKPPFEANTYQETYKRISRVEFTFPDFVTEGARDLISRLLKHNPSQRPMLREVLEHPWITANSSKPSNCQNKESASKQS
Serine/threonine-protein kinase PLK1, sequence (P53350 whole entry): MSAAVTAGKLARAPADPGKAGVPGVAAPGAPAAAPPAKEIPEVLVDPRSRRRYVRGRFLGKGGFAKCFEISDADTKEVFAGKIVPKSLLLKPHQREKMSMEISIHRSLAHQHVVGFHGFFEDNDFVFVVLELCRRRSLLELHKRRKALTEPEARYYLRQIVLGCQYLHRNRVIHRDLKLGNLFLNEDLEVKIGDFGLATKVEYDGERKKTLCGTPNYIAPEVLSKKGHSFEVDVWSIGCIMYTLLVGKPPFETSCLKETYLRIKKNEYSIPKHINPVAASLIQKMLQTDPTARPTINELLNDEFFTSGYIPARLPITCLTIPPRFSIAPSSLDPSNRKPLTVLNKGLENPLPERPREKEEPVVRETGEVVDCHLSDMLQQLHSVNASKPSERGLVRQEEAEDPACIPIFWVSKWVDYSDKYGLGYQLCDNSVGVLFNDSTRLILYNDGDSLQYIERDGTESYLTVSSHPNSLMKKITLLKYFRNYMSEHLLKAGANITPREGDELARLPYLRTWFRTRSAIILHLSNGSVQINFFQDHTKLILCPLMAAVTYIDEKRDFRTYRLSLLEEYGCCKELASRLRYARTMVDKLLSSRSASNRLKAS
Serine/threonine-protein kinase MRCK alpha, sequence (Q5VT25 whole entry): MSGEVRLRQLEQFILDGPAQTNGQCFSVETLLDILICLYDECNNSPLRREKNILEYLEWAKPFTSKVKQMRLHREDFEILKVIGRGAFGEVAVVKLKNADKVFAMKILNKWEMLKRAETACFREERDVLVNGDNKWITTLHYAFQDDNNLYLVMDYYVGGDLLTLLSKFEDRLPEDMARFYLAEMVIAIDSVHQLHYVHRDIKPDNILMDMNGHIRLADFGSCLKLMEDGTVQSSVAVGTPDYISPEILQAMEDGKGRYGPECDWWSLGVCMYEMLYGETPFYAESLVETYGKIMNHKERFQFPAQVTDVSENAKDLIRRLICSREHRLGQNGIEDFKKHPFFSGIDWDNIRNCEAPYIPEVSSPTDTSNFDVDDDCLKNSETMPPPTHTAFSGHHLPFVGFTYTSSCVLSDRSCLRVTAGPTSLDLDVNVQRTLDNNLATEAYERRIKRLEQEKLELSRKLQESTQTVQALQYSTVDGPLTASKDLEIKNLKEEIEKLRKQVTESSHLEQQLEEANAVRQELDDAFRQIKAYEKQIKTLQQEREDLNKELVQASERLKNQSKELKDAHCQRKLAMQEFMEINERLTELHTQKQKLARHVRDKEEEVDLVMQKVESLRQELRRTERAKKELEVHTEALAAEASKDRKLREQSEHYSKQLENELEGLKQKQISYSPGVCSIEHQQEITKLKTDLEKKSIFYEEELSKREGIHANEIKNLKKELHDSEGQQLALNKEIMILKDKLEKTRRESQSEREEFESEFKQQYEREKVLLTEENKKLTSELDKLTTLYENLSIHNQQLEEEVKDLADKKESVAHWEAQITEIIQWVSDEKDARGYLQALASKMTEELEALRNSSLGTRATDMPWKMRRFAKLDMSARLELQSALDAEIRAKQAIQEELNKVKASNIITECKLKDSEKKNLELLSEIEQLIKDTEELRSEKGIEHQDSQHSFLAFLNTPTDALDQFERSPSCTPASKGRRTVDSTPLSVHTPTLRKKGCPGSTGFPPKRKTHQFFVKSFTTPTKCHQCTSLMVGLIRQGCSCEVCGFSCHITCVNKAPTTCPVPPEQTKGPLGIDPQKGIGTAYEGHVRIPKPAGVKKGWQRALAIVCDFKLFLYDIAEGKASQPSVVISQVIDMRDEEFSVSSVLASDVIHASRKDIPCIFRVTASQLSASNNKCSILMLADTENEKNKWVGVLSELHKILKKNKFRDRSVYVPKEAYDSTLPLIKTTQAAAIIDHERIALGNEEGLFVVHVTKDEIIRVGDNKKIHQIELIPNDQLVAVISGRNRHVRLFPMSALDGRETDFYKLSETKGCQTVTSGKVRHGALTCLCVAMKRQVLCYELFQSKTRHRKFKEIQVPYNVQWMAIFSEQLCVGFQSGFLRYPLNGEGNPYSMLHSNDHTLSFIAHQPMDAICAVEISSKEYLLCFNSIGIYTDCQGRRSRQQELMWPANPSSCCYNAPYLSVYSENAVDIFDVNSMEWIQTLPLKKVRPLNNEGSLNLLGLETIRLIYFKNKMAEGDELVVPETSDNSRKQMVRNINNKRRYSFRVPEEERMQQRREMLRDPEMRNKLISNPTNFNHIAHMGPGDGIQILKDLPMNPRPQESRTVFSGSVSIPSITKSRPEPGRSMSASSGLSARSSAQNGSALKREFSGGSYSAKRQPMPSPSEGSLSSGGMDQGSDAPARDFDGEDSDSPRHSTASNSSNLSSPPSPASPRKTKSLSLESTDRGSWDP

COc1cc(C=Nn2c(S)nnc2-c2[nH]nc3c2CCC3)ccc1O
IC50 [1]: 0.808 µM (active)
IC50 [2]: > 99 µM (inactive)
IC50 [3]: > 99 µM (inactive)
IC50 [4]: 0.732 µM (active)

CC(=O)Nc1cccc(OCC(=O)NC(C)c2ccc3ccccc3c2)c1 (stereo not drawn)
IC50 [5]: 9.01 µM (active)
IC50 [6]: 0.623 µM (active)
IC50 (CHO-K1): > 66.2 µM (inactive)
IC50 [7]: > 49.7 µM (inactive)
IC50 (Orexin receptor type 2 [8]): > 50 µM (inactive)
IC50 (Orexin receptor type 2 [9]): 30 µM (inactive)

COc1cc(Nc2ncnc(Nc3cc[nH]n3)n2)cc(OC)c1OC
Ki (Aurora kinase B): 0.316 µM (active)
Ki [10]: 3.98 µM (active)

C/N=C1/S/C(=C/c2cc(C)n(Cc3ccccc3)c2C)C(=O)N1C
EC50 [11]: 0.144 µM (active)
EC50 [12]: 0.72 µM (active)
EC50 [13]: > 25 µM (inactive)
EC50 [14]: 3.65 µM (active)

C[C@@H]1CN([C@@H](C)CO)C(=O)c2cc(NC(=O)Nc3ccccc3)ccc2O[C@@H](C)CCCCO[C@H]1CN(C)S(=O)(=O)c1ccccc1F
AC50 [15]: 0.924 µM (active)
AC50 [16]: 0.641 µM (active)

Cc1noc(C)c1S(=O)(=O)Nc1ccc2c(c1)CC(=O)N([C@@H](C)CO)C[C@H](C)[C@H](CN(C)S(=O)(=O)c1ccc(F)cc1)O2
AC50 [17]: 19.5 µM (active)

O=[N+]([O-])c1cc(/C=N\Nc2ccccn2)ccc1Cl
EC50 [18]: 9.33 µM (active)

COc1ccc(OC)c(CNC(=O)c2cc(N)c(C#N)c(OC(C)C)n2)c1
Ki [19]: > 7.94 µM (inactive)
Ki [20]: > 7.94 µM (inactive)
Ki [21]: > 7.94 µM (inactive)
Ki [22]: > 6.31 µM (inactive)
Ki [23]: 7.94 µM (active)
Ki [24]: > 7.94 µM (inactive)
Ki [25]: > 10 µM (inactive)
Ki [26]: > 10 µM (inactive)
Ki [27]: 1 µM (active)
Ki [28]: > 7.94 µM (inactive)
Ki [29]: 5.01 µM (active)
Ki [30]: 6.31 µM (active)
Ki [31]: 1.58 µM (active)
Ki [32]: > 7.94 µM (inactive)
Ki (Aurora kinase A): > 6.31 µM (inactive)
Ki (Ephrin type-A receptor 2): > 7.94 µM (inactive)
Ki [33]: > 10 µM (inactive)
Ki [34]: > 5.01 µM (inactive)
Ki [35]: > 7.94 µM (inactive)
Ki [36]: > 6.31 µM (inactive)
Ki [37]: 0.501 µM (active)
Ki [38]: > 10 µM (inactive)
Ki [39]: > 7.94 µM (inactive)
Ki [40]: > 7.94 µM (inactive)
Ki [41]: > 7.94 µM (inactive)

c1ccc(-c2n[nH]cc2-c2ccncc2)cc1
Ki [19]: > 20 µM (inactive)
Ki [20]: > 20 µM (inactive)
Ki [42]: 10 µM (active)
Ki [43]: > 7.94 µM (inactive)
Ki [21]: > 20 µM (inactive)
Ki [22]: > 15.8 µM (inactive)
Ki [23]: > 25.1 µM (inactive)
Ki [44]: 2 µM (active)
Ki [45]: 1 µM (active)
Ki [24]: > 20 µM (inactive)
Ki [46]: > 10 µM (inactive)
Ki [25]: 10 µM (active)
Ki [26]: 1.26 µM (active)
Ki [47]: > 3.98 µM (inactive)
Ki [27]: > 3.16 µM (inactive)
Ki [48]: > 5.01 µM (inactive)
Ki [30]: 7.94 µM (active)
Ki [31]: 0.251 µM (active)
Ki [32]: 2.51 µM (active)
Ki (Aurora kinase A): 6.31 µM (active)
Ki (Ephrin type-A receptor 2): > 20 µM (inactive)
Ki [33]: 20 µM (active)
Ki [34]: > 12.6 µM (inactive)
Ki [35]: > 20 µM (inactive)
Ki [36]: 7.94 µM (active)
Ki [37]: 2.51 µM (active)
Ki [38]: > 25.1 µM (inactive)
Ki [40]: 10 µM (active)
Ki [41]: 0.794 µM (active)

CC(=O)Nc1cc(N)c(C#N)c(OCC(C)C)n1
Ki [49]: 6.31 µM (active)
Ki [50]: 1.58 µM (active)

COc1ccccc1NC(=O)c1cnn2c(-c3ccccc3)ccnc12
Ki (LIM domain kinase 1): 2.51 µM (active)
Ki [33]: 5.01 µM (active)
